Results reported in ChEMBL document CHEMBL1135028, “Enantio-dependent binding and transactivation of optically active phenylpropanoic acid derivatives at human peroxisome proliferator-activated receptor alpha” (Bioorg Med Chem Lett, 2002).

Legend:
[1] = target: T1, Peroxisome proliferator-activated receptor alpha (Homo sapiens, UniProt Q07869); assay: Binding affinity of compound to human peroxisome proliferator-activated receptor alpha was determined by competitive binding assay
T1 sequence (Q07869 whole entry): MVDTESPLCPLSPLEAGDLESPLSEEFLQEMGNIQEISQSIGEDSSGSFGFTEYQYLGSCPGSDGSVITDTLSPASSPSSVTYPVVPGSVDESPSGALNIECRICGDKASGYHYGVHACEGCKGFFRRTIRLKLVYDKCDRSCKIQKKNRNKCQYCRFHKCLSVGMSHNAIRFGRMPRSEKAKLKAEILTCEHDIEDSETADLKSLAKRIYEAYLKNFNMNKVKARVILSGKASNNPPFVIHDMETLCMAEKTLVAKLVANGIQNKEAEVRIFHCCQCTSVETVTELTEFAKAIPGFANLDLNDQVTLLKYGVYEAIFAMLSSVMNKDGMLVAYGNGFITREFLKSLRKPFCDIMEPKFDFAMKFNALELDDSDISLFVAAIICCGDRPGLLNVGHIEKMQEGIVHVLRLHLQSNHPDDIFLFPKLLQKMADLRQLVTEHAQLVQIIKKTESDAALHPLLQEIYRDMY

[2] = target: T1, Peroxisome proliferator-activated receptor alpha; assay: Compound was tested for half maximum transactivation activity of human peroxisome proliferator-activated receptor alpha; type: functional

Row | EC50 [1] [µM] | EC50 [2] [µM] | SMILES
1 | 24 | 1.5 | CC[C@H](Cc1ccc(OC)c(C(=O)NCc2ccc(C(F)(F)F)cc2)c1)C(=O)O
2 | 0.74 |  | CC[C@@H](Cc1ccc(OC)c(C(=O)NCc2ccc(C(F)(F)F)cc2)c1)C(=O)O
